Laboratory results reported in patent US8476319B2, “Methods of treating ear infections” (3M Innovative Properties Company, priority 2005, dated 2013).

Experiments:
[1] = tested on: Organ of Corti hair cells; test: Ototoxicity testing in chinchillas (trans bullar injection, Organ of Corti surface preparation); conditions: 0.1 cc into middle ear, two injections, 17 days
Excerpt: Initial screening of selected components for ototoxic effect was preformed using chinchillas. The compounds or compounds plus vehicle were placed in proximity to the round window membrane of the chinchilla and the tissues evaluated for ototoxic insult.
General Test Procedure: Chinchillas were mildly anesthetized using 0.1 cc IM ketamine. The skin overlying the ventral aspect of the left and right bulla were shaved and surgically prepped. An amount (0.1 cubic centimeter (cc)) of the test material was placed in the middle ear near the round window niche using a 1 cc syringe with a 23 guage needle by trans bullar injection. Three days later the procedure was repeated using the same test material in each ear. Fourteen days after the second injection (total survival time=17 days) the animals were sacrificed. The bullae were removed, the cochlea isolated and perfused with fixative through the round window membrane. After standard preparation (fixation and decalcification) the samples were dissected and the Organ of Corti isolated and evaluated for ototoxic insult. The surface preparation analysis of the Organ of Corti is a universally accepted method of evaluating hair cell loss due to ototoxic insult. The chinchilla is the standard test animal used and a 14 day survival time is adequate to screen for gross hair cell disruption due to ototoxic effect. The materials were tested in both a right and left ear but using two different animals.
This served as a positive control.

[2] = Transport through the tympanic membrane, GC of saline recovered from middle ear; format: in vivo, chinchilla; conditions: for formulation component detected by GC in saline recovered from the middle ear: Example 2 formulation in outer ear next to tympanic membrane, samples at 15, 30, 60 min
Procedure: Example 2 formulation was evaluated for transportability across the ear drum (tympanic membrane) and into the middle ear with an animal model test using chinchillas (400 g to 500 g). A cotton plug saturated with Example 2 formulation was placed against the outer ear membrane of a chinchilla. An opening was made into the middle ear through the bulla and 1 mL saline was placed in the middle ear. At 15, 30, and 60 min. the saline was withdrawn and replaced with fresh saline. Tympanometry was completed before and after the test compositions were applied to ensure the tympanic membrane was intact (without perforations). The saline samples were kept at 4° C. until assayed.
GC Analysis: Six samples of saline recovered from the middle ear of a chinchilla were analyzed by GC. They were recovered from both the left and right ears of the test animal at 15, 30, and 60 min after an antibacterial formulation was placed in the outer ear next to the tympanic membrane. The GC analysis detected the formulation components of GML, FINSOLV NT, and benzoic acid.
Standard preparation: A single external standard of GML (Medchem—97%) at 1 mg/mL was prepared in CHCl3. Standards of methyl benzoate and FINSOLV NT were also available. Saline (0.9% NaCl) was prepared in the lab.
Sample Extraction: The six samples were contained in 1.5 mL clear plastic micorcentrifuge tubes. The 30- and 60-min samples were clear while the 15-min samples contained a water insoluble residue (there appeared to be so much antimicrobial composition in the sample collected a separate phase was noted by the analyst). The liquid was vortexed and transferred to separate 10 mL graduated clinical centrifuge tubes and the volume recorded. The sample tubes were rinsed once with approximately 0.5 mL saline vortexed and transferred to the centrifuge tube. The microtubes were rinsed a second time with approximately 0.75 mL chloroform which was also transferred to the clinical centrifuge tube. The chloroform dissolved the residue in the 15 min samples. The liquid level in the centrifuge tubes was brought to 1.7 mL by the addition of saline solution. A sample (4.5 mL) of CHCl3 was then added to the centrifuge tubes using a 5-mL graduated glass pipette. The tubes were then sealed with TEFLON screw cap tops and vortexed for 2 min. They were then centrifuged in an IEC clinical centrifuge until 2 clear phases formed (approximately 5 min). Using Pasture pipettes, the lower (organic) phases were quantitatively transferred to a set of preweighed 7-mlL vials. The extracts were treated with diazomethane (DAM) which formed the methyl esters of acids present, in this case methyl benzoate from benzoic acid present. Extracts were placed on a warm heating block and taken to dryness under a stream of nitrogen. Once constant weight was obtained, the samples were re-weighed and the net weight was recorded. Using a graduated pipette enough CHCl3 was added back to the 15 min extracts to achieve a concentration of 1 mg/mL in GML. The 30 and 60 min samples had much less weight so an arbitrary ½ mL of CHCl3 was added. An aliquot of each sample was then transferred to an autosampler vial and analyzed by GC using the conditions below. Gas Chromatography: • Instrument—HP 5890 • Column—15 meter STABILWAX-DA, 0.25 μm film 0.25 mm ID • Carrier—He, 2.07×10^5 N/m^2(30 psi) constant pressure • Injection—2 μL split 1:60, injector temp 250° C. • Liner—Restek SILTEK deactivated liner with SILTEK • deactivated glass wool (catalog number 22406-213.5) • Program—110° C. initial, 7° C./min to 250°, hold 10 minutes • Detector—FID at 250° C.
The total recovered GML was determined by direct GC analysis of the fractions. […] As indicated above a standard of methyl benzoate was substituted for benzoic acid. The components have been identified and the FINSOLV TN contributes most of the peak area. […]

[3] = recovered from middle ear saline 15 minutes after Example 2 formulation placed against tympanic membrane
[4] = recovered from middle ear saline 30 minutes after Example 2 formulation placed against tympanic membrane
[5] = total of 15, 30 and 60 minute samples, Example 2 formulation

With “Propylene glycol monocaprylate [PG monocaprylate]” the “Ototoxicity Result” value ([1]; 0.25% in water) was “No toxicity (no toxicity (rating 1))” and the “Ototoxicity Result” value ([1]; 1% / 1.0% in water) was “No toxicity (no toxicity (rating 1))”.

For `CCCCCCCCCCCC(=O)OCC(O)CO` (stereo not drawn) [GML, Glycerol monolaurate], the “Ototoxicity Result” value ([1]; 0.5% in water) was “No toxicity (no toxicity (rating 1))”, the “Ototoxicity Result” value ([1]; 1% / 1.0% in water) was “No toxicity (no toxicity (rating 1))” and the “Ototoxicity Result” value ([1]; 1% in IPM) was “Toxic (toxic (rating 2-4))”. For the same molecule, the “formulation component detected by GC in saline recovered from the middle ear” value [2] was “detected”, the “Left ear GML” value [2, 3] was 10.3 mg and the “Right ear GML” value [2, 3] was 2.35 mg. The “Left ear GML” value [2, 4] was 0.03 mg, the “Right ear GML” value [2, 4] was 0.98 mg and the “Left ear GML (mg), Total” value [2, 5] was 10.33 mg. For the same molecule, the “Right ear GML (mg), Total” value [2, 5] was 3.33 mg.

In the case of `CCCCC(CC)COC(=O)CC(C(=O)OCC(CC)CCCC)S(=O)(=O)[O-].[Na+]` (stereo not drawn) [GEMTEX (DOSS), Dioctylsulfosuccinate, sodium salt], the “Ototoxicity Result” value ([1]; 1% / 1.0% in water) is reported as “Toxic (toxic (rating 2-4))”.

For `CCCCCCCCCCCCCC(=O)OC(C)C` [IPM, Isopropyl myristate], the “Ototoxicity Result” value ([1]; 100%) was “Toxic (toxic (rating 2-4))”.

For `O=C(O)c1ccccc1` [benzoic acid, Benzoic acid], the “formulation component detected by GC in saline recovered from the middle ear” value [2] was “detected”.
